This is an account of results in PubChem BioAssay AID180 (DTP/NCI, 2004).

Usually T/C stands for the result in the treated group divided by that in the control group, in per cent.

This test deals with BDF1 mice, Adenocarcinoma 755 s.c., tumor weight T/C. Briefly: NCI In Vivo Anticancer Drug Screen. Data for tumor model Adenocarcinoma 755 (subcutaneous) in B6D2F1 (BDF1) mice. The conditions noted are these: endpoint: mean tumor weight, higher = larger tumour. The method in brief: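 Values express treated (T) relative to vehicle-dosed control (C) animals, based on survival or tumour size measured after compound treatment of mice bearing a transplanted tumour.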

Setting [1] is: dose: 25.0 mg/kg/injection, schedule: Q01DX011 (ip), vehicle: methylcellulose (MC).
[2] abbreviates: dose: 15.0 mg/kg/injection, schedule: Q01DX011 (ip), vehicle: methylcellulose (MC).
The mark [3] stands for this setting: dose: 31.0 mg/kg/injection, schedule: Q01DX011 (ip), vehicle: methylcellulose (MC).
[4] abbreviates: dose: 62.0 mg/kg/injection, schedule: Q01DX011 (ip), vehicle: methylcellulose (MC).
Where [5] appears, read: dose: 125.0 mg/kg/injection, schedule: Q01DX011 (ip), vehicle: methylcellulose (MC).
Setting [6] is: dose: 250.0 mg/kg/injection, schedule: Q01DX011 (ip), vehicle: methylcellulose (MC).
Where [7] appears, read: dose: 50.0 mg/kg/injection, schedule: Q01DX011 (ip), vehicle: methylcellulose (MC).
The mark [8] stands for this setting: dose: 30.0 mg/kg/injection, schedule: Q01DX011 (ip), vehicle: carboxymethylcellulose (CMC).
[9] abbreviates: dose: 120.0 mg/kg/injection, schedule: Q01DX011 (ip), vehicle: carboxymethylcellulose (CMC).
Setting [10] is: dose: 240.0 mg/kg/injection, schedule: Q01DX011 (ip), vehicle: carboxymethylcellulose (CMC).
[11] abbreviates: dose: 100.0 mg/kg/injection, schedule: Q01DX011 (ip), vehicle: carboxymethylcellulose (CMC).
Setting [12] is: dose: 200.0 mg/kg/injection, schedule: Q01DX011 (ip), vehicle: carboxymethylcellulose (CMC).

“And” between values parts separate entries of the source, which are not always exact repeats. Equal values may be shown once.

Regarding `NNC(=O)CCC(N)C(=O)O` (centres undefined), the T/C (dose: 10.21 mg/kg/injection, schedule: Q01DX011 (ip), vehicle: carboxymethylcellulose (CMC)) was 121 % of control; the T/C (dose: 13.0 mg/kg/injection, schedule: Q01DX011 (ip), vehicle: carboxymethylcellulose (CMC)) was 91 % of control; the T/C (dose: 20.42 mg/kg/injection, schedule: Q01DX011 (ip), vehicle: carboxymethylcellulose (CMC)) is 96 % of control; the T/C (dose: 26.0 mg/kg/injection, schedule: Q01DX011 (ip), vehicle: carboxymethylcellulose (CMC)) was 60 % of control; the T/C (dose: 40.85 mg/kg/injection, schedule: Q01DX011 (ip), vehicle: carboxymethylcellulose (CMC)) is 151 % of control; the T/C (dose: 43.05 mg/kg/injection, schedule: Q01DX011 (ip), vehicle: carboxymethylcellulose (CMC)) is 97 % of control. For the same compound, the T/C (dose: 52.0 mg/kg/injection, schedule: Q01DX011 (ip), vehicle: carboxymethylcellulose (CMC)) was 70 % of control; the T/C (dose: 81.7 mg/kg/injection, schedule: Q01DX011 (ip), vehicle: carboxymethylcellulose (CMC)) was 67 % of control; the T/C (dose: 86.1 mg/kg/injection, schedule: Q01DX011 (ip), vehicle: carboxymethylcellulose (CMC)) was 98 % of control; the T/C (dose: 104.0 mg/kg/injection, schedule: Q01DX011 (ip), vehicle: carboxymethylcellulose (CMC)) was 56 % of control.
Take `CSc1ncnc2c1ncn2CCO`: the T/C under setting [1] was 119 % of control.
As for `CSc1ncc(Br)c(Nc2ccc(C)cc2)n1`, the T/C is 75 % of control under setting [2]; 74 % of control under setting [3]; 75 % of control under setting [4]; 92 % of control under setting [5]; 68 % of control under setting [6].
Consider `CC(=O)c1cc(C)[nH]c1C`, for which the T/C was 58 % of control (dose: 29.0 mg/kg/injection, schedule: Q01DX011 (ip), vehicle: carboxymethylcellulose (CMC)); 99 % of control (dose: 57.5 mg/kg/injection, schedule: Q01DX011 (ip), vehicle: carboxymethylcellulose (CMC)); 29 % of control (dose: 115.0 mg/kg/injection, schedule: Q01DX011 (ip), vehicle: carboxymethylcellulose (CMC)); 96 % of control and 77 % of control (dose: 115.0 mg/kg/injection, schedule: Q01DX011 (ip), vehicle: methylcellulose (MC)).
In the case of `CCCCCCCCCCCCCCCCC(C(=O)O)C(O)(CC(=O)O)C(=O)O` (centres undefined), the T/C was 96 % of control (dose: 19.0 mg/kg/injection, schedule: Q01DX011 (ip), vehicle: carboxymethylcellulose (CMC)); 49 % of control (dose: 37.5 mg/kg/injection, schedule: Q01DX011 (ip), vehicle: carboxymethylcellulose (CMC)); 59 % of control (dose: 75.0 mg/kg/injection, schedule: Q01DX011 (ip), vehicle: carboxymethylcellulose (CMC)).
As to `CCSc1ncnc2c1ncn2C1OC(CO)C(O)C1O` (centres undefined), the T/C reads like this: (dose: 6.25 mg/kg/injection, schedule: Q01DX011 (ip), vehicle: saline) 96 % of control; (dose: 12.5 mg/kg/injection, schedule: Q01DX011 (ip), vehicle: methylcellulose (MC)) 53 % of control; (dose: 12.5 mg/kg/injection, schedule: Q01DX011 (ip), vehicle: saline) 49 % of control; under setting [1], 27 % of control; (dose: 25.0 mg/kg/injection, schedule: Q01DX011 (ip), vehicle: saline) 14 % of control; under setting [7], 10 % of control. For the same compound, the T/C (dose: 50.0 mg/kg/injection, schedule: Q01DX011 (ip), vehicle: saline) was 4 % of control.
On to `CC(COS(C)(=O)=O)C(=O)N1CCN(C(=O)C(C)COS(C)(=O)=O)CC1` (centres undefined), for which the T/C is, setting by setting: (dose: 28.0 mg/kg/injection, schedule: Q01DX011 (ip), vehicle: methylcellulose (MC)) 69 % of control; (dose: 57.0 mg/kg/injection, schedule: Q01DX011 (ip), vehicle: methylcellulose (MC)) 74 % of control; (dose: 113.0 mg/kg/injection, schedule: Q01DX011 (ip), vehicle: methylcellulose (MC)) 73 % of control; (dose: 225.0 mg/kg/injection, schedule: Q01DX011 (ip), vehicle: methylcellulose (MC)) 69 % of control.
As for `OCC1OC(n2cnc3c(Br)ncnc32)C(O)C1O` (centres undefined), the T/C under setting [8] was 74 % of control, the T/C under setting [9] is 63 % of control and the T/C under setting [10] was 49 % of control.
`Nc1nc(Br)c2ncn(C3OC(CO)C(O)C3O)c2n1` (centres undefined): the T/C reads like this: under setting [8], 107 % of control; (dose: 60.0 mg/kg/injection, schedule: Q01DX011 (ip), vehicle: carboxymethylcellulose (CMC)) 86 % of control; under setting [9], 106 % of control; under setting [10], 103 % of control.
On to `CNc1nc(SCc2ccc(Cl)cc2Cl)ncc1C`, for which the T/C by setting is: under setting [2], 84 % of control; under setting [3], 69 % of control; under setting [4], 67 % of control; under setting [5], 73 % of control; under setting [6], 61 % of control.
Take `Nc1ncc2[nH]c(N)nc2n1`: the T/C runs as follows: under setting [1], 58 % of control; (dose: 75.0 mg/kg/injection, schedule: Q01DX011 (ip), vehicle: methylcellulose (MC)) 73 % of control.
With `C[C@]12CCC(=O)C=C1CC[C@H]1[C@@H]3CC[C@@]4(OCC4=O)[C@@]3(C)C[C@H](O)[C@@]12F`, the T/C runs as follows: (dose: 75.0 mg/kg/injection, schedule: Q01DX011 (sc), vehicle: steriod suspending solution) 13 % of control; (dose: 150.0 mg/kg/injection, schedule: Q01DX011 (sc), vehicle: steriod suspending solution) 11 % of control.
For `CC(=O)[C@H]1[C@H](O)C[C@H]2[C@@H]3CCC4=CC(=O)CC[C@]4(C)[C@@]3(F)[C@@H](O)C[C@@]21C`, the T/C (dose: 100.0 mg/kg/injection, schedule: Q01DX011 (sc), vehicle: steriod suspending solution) was 48 % of control; the T/C (dose: 125.0 mg/kg/injection, schedule: Q01DX011 (oral), vehicle: steriod suspending solution) is 74 % of control; the T/C (dose: 200.0 mg/kg/injection, schedule: Q01DX011 (sc), vehicle: steriod suspending solution) was 38 % of control; the T/C (dose: 250.0 mg/kg/injection, schedule: Q01DX011 (oral), vehicle: steriod suspending solution) was 57 % of control; the T/C (dose: 400.0 mg/kg/injection, schedule: Q01DX011 (sc), vehicle: steriod suspending solution) was 36 % of control; the T/C (dose: 500.0 mg/kg/injection, schedule: Q01DX011 (oral), vehicle: steriod suspending solution) is 62 % of control. Besides, the T/C was 26 % of control (dose: 800.0 mg/kg/injection, schedule: Q01DX011 (sc), vehicle: steriod suspending solution) and 58 % of control (dose: 1000.0 mg/kg/injection, schedule: Q01DX011 (oral), vehicle: steriod suspending solution).
`O=C(O)CCC(=O)NO`: the T/C (dose: 50.0 mg/kg/injection, schedule: Q01DX011 (ip), vehicle: carboxymethylcellulose (CMC)) is 96 % of control; the T/C under setting [11] was 98 % of control; the T/C under setting [12] was 84 % of control.
On to `CCCCNC(=O)c1n[se]nc1N`, for which the T/C reads like this: (dose: 2.0 mg/kg/injection, schedule: Q01DX011 (ip), vehicle: carboxymethylcellulose (CMC)) 76 % of control; (dose: 4.0 mg/kg/injection, schedule: Q01DX011 (ip), vehicle: carboxymethylcellulose (CMC)) 87 % of control.
For `CNc1nc(N)nc(Nc2ccc(I)cc2)c1N=O`, the T/C was 52 % of control (dose: 12.5 mg/kg/injection, schedule: Q01DX011 (ip), vehicle: carboxymethylcellulose (CMC)); 39 % of control and 52 % of control (dose: 25.0 mg/kg/injection, schedule: Q01DX011 (ip), vehicle: carboxymethylcellulose (CMC)); 31 % of control under setting [7]; 20 % of control and 36 % of control and 38 % of control under setting [11]; 46 % of control (dose: 100.0 mg/kg/injection, schedule: Q01DX011 (ip), vehicle: methylcellulose (MC)); 28 % of control and 30 % of control under setting [12]. Further, the T/C (dose: 200.0 mg/kg/injection, schedule: Q01DX011 (ip), vehicle: methylcellulose (MC)) was 25 % of control and the T/C (dose: 400.0 mg/kg/injection, schedule: Q01DX011 (ip), vehicle: methylcellulose (MC)) is 12 % of control.
Regarding `CCOC(=O)C1=C(C)NC(C)=C(C(=O)OCC)C1C`, the T/C was 85 % of control (dose: 31.2 mg/kg/injection, schedule: Q01DX011 (ip), vehicle: other); 77 % of control (dose: 62.5 mg/kg/injection, schedule: Q01DX011 (ip), vehicle: other); 79 % of control and 81 % of control (dose: 125.0 mg/kg/injection, schedule: Q01DX011 (ip), vehicle: other).
